For test [1], the system named is mouse breast cancer cell line 4T1. Nature of the test: Subcutaneously transplanted 4T1 tumor growth inhibition. The conditions noted are these: 4T1 in BALB/c mice; 10 mg/kg intraperitoneal once every 2 days for 20 days. In kind it is in vivo, BALB/c ordinary mice. From the text: Experimental animals: BALB/c ordinary mice and C57BL/6 ordinary mice, male, weighing 20-22 grams, 7-8 weeks old, purchased from Shanghai SLAC Laboratory Animal Co. Ltd.
Tumour cell line: mouse colorectal cancer cell line CT26 and mouse breast cancer cell line 4T1, both purchased from Chinese Academy of Sciences Cell Bank.
Establishment and intervention of tumor model mice: cells were subjected to culture and subculture, collected in a logarithmic phase and prepared as 1.0×10^7/mL of cell suspension. 0.2 mL of the cell suspension was injected armpits of forelegs of the mice (with a cell number of 2.0×10^6), and tumor transplantation was successful in about 7 days. Mice with successful tumor transplantation were randomly divided into 7 groups (10 mice in each group). The 7 groups were listed as follows: A: negative control group (injection with normal saline); B: positive control cGAMP group (10 mg/kg of injection); C: [Li2(cGAMP)] group (10 mg/kg of injection); D: [Mg(cGAMP)] group (10 mg/kg of injection); E: [Zn(cGAMP)] group (10 mg/kg of injection); F: [Mn(cGAMP)] group (10 mg/kg of injection); and G: [Fe(cGAMP)] group (10 mg/kg of injection). The mice with successful tumor transplantation were subjected to administration by intraperitoneal injection with a volume of 200 μL per mice once every 2 days for 20 days. After 20 days, the mice with successful tumor transplantation were killed, and the tumor were weighed. A formula of inhibitory rate of tumor was as represented as inhibitory rate of tumor=[1−average tumor weight of experimental group/average tumor weight of the negative control group]×100%.
According to the establishment of tumor model mice, the mouse colorectal cancer cell line CT26 was cultured and transplanted to the BALB/c ordinary mice, and the mouse breast cancer cell line 4T1 was cultured and transplanted to the BALB/c ordinary mice.
Statistical analysis: data was expressed as mean±standard deviation and processed by the SPSS10.0 software. One-way ANOVA was used to detect and compare significance of tumor weights in each group.

The next test has as its system IRI mice (male SD mice). The test can be described thus: Cerebral ischemia-reperfusion injury (IRI) model, TTC dyeing. Particulars: 2 h ischemia, 24 h reperfusion; caudal vein injection 5 mg/kg (Edaravone 6 mg/kg) after 30 min ischemia. In kind it is in vivo. As for the experimental part: Experimental animals: healthy male mice, weighing 280-300 grams, purchased from Shanghai SLAC Laboratory Animal Co. Ltd, with quality certificate No. (SCXK (Shanghai) 2007-0005), and kept in clean animal houses.
Establishment of a mouse cerebral ischemia model of mice and experimental method: 280-300 grams of male […] mice were selected for experiments. The male SD mice were subjected to fasting without water deprivation for 12 h before operation followed by weighing, numbering and random grouping. The male SD mice were anesthetized by intraperitoneal injection of 10 wt. % chloral hydrate at a dosage of 0.3 mL/100 g. After the male SD mice had no pain reflexes, they were subjected to neck skin preparation followed by being fixed on a dissecting table in supine position. After neck skins were disinfected with sterilized cotton balls, about 1 cm of the neck skins were cut in mid-cervical to expose subcutaneous tissues, and subcutaneous fat and the fascia were bluntly plucked with curved tweezers to expose neck muscle groups. The common carotid arteries and their upwardly internal and external carotid branches were visualized by opening the digastric muscle. The external, internal, and common carotid arteries were carefully dissected, and a thin wire was threaded under each of the three arteries, and homemade plastic spacers were placed under the common carotid arteries. The external carotid arteries and proximal ends of the common carotid arteries were ligated. After the internal common carotid arteries were clamped by arterial clips, the common carotid arteries were stuck into with homemade curved hooks followed by picking up and leading in monofilaments. The spacers were removed, and the monofilaments were gently pushed into the internal common carotid arteries and craniums. […] At this time, blood supplies of the middle cerebral arteries from the anterior cerebral arteries were blocked. Thin wires under the internal carotid arteries were ligated to secure the monofilaments to prevent the monofilaments from retreating. Excess thin wires were cut, penicillin was applied to wounds to prevent infection. The male SD mice were sutured and placed under a warm lamp to keep warm. Timing was performed when blood flows of the middle cerebral arteries were blocked by the monofilaments. After 2 hours, the monofilaments were gently pulled out and the black marks were seen, then reperfusion can be achieved.
Triphenyl tetrazolium chloride (TTC) dyeing: After being injured by 2 h cerebral ischemia and 24 h reperfusion, the male SD mice were anesthetized with 0.3 mL/100 g dosage of 10 wt. % of chloral hydrate by intraperitoneal injection and subjected to abdominal aorta bleeding to reduce influence of blood in brains. Then whole heads of the male SD mice were removed immediately after decapitating, and washed with normal saline followed by being promptly put into a −20° C. refrigerator to freeze for 20 min. Frozen brains were collected and subjected to coronal sections, each 2 mm of thickness, by a blade. Then the coronal sections were subjected to dark dyeing in a 2 wt. % of TTC solution for 20 min and fixing in a 4 wt. % of polyformaldehyde solution for 6 h followed by photographing. Then, Photoshop software was used to define area and calculate, and a formula was represented as a percentage of cerebral ischemic area=a total area of white area/a total area of ischemic hemisphere×100%.
Drug preparation and experimental grouping: Edaravone was used as a positive control drug, and an Edaravone injection was 30 mg/20 mL. A single dosage for each of the male SD mice was 0.4 mL/100 g, that is, 6 mg/kg. The cyclic dinucleotide metal compounds prepared in Examples 1-5 were prepared into […] injection drugs with the normal saline. Each of the male SD mice was subjected to caudal vein injection with 0.4 mL/100 g dosage of drugs, that is, 5 mg/kg. The male SD mice were divided into 8 groups (10 mice in each group). […]

A further test relates to T(CD8+) cells. The test can be described thus: Flow cytometry of CD8+ T cells in spleen and lung after immunization. In kind it is in vivo, C57BL/6 ordinary mice. The conditions noted are these: after 14 days of immunization. The source says:
Experimental animals: C57BL/6 ordinary mice, male, weighing 20-22 grams, 7-8 weeks old, purchased from Shanghai SLAC Laboratory Animal Co. Ltd.
The mice were randomly divided into 8 groups (10 mice in each group). The 8 groups were as listed follows: A: Negative control group (isotype control antibody group); B: blank group; C: cyclic dinucleotide group; D: [Li2(cGAMP)] group; E: [Mg(cGAMP)] group; F: [Zn(cGAMP)] group; G: [Mn(cGAMP)] group; and H: [Fe(cGAMP)] group. Isotype control flow antibody was purchased from eBiosciences, antibody magnetic strain was purchased from Militeny Biotech, and flow cytometry was purchased from BD company. After 14 days of immunization (immunization process was the same as that in the Example 12), spleens and lung tissues of the mice were collected, respectively mashed, filtered through 40 micron pores followed by 1000 rpm of centrifugation for 10 min to solate unlysed immune cells. Dendritic cells (DCs) (CD40\CD80\CD86\MHCII), T(CD8+) cells were separated, and added with corresponding FAC antibodies (diluted with Fluorescence-Activated Cell Sorting (FACS) buffer). Isotype control antibody was used as negative control. After antibody addition, the DCs and T (CD8+) cells were incubate for 1 h, centrifuged and washed by phosphate buffer saline (PBS) followed by analysis by the flow cytometry to sort suitable cells. Fluorescence intensity (MFI) of sorted cells was measured.
For orientation: Flow cytometry measures light scatter and fluorescence of single cells or particles in a stream.

On to `Nc1nc2c(ncn2C2OC3COP(=O)([O-])OC4C(COP(=O)([O-])OC2C3O)OC(n2cnc3c(N)ncnc32)C4O)c(=O)[nH]1.[Mn+2]` (stereo not drawn) [[Mn(cGAMP)], manganese cyclic dinucleotide], for which, in test [1], the “Average inhibitory rate of tumor” value is 84.9% and the Average tumor weight came to 0.287 ± 0.116 g. Also, in the test with IRI mice (male SD mice), the “Average value of percentage of cerebral ischemic area” value is listed as 25.56%. In the test with T(CD8+) cells, the “Lung (% CD8 + T cells)” value amounted to 0.8 ± 0.3% and the “Spleen (% CD8 + T cells)” value stood at 7.5 ± 1.3%.
In the case of `Nc1nc2c(ncn2[C@@H]2O[C@@H]3COP(=O)([O-])O[C@H]4[C@@H](O)[C@H](n5cnc6c(N)ncnc65)O[C@@H]4COP(=O)([O-])O[C@@H]2[C@@H]3O)c(=O)[nH]1.[Li+].[Li+]` [[Li2(cGAMP)], lithium cyclic dinucleotide], in test [1], the “Average inhibitory rate of tumor” value was 61.5% and the Average tumor weight stood at 0.712 ± 0.146 g. The “Average value of percentage of cerebral ischemic area” value in the test on IRI mice (male SD mice) is 25.25%. Also, in the test on T(CD8+) cells, the “Lung (% CD8 + T cells)” value is given as 0.6 ± 0.2% and the “Spleen (% CD8 + T cells)” value was 3.1 ± 0.3%.
As for `Nc1nc2c(ncn2[C@@H]2O[C@@H]3COP(=O)([O-])O[C@H]4[C@@H](O)[C@H](n5cnc6c(N)ncnc65)O[C@@H]4COP(=O)([O-])O[C@@H]2[C@@H]3O)c(=O)[nH]1.[Zn+2]` [[Zn(cGAMP)], zinc cyclic dinucleotide], in test [1], the “Average inhibitory rate of tumor” value turned out to be 89.1% and the Average tumor weight is listed as 0.212 ± 0.135 g. In addition, in the test with IRI mice (male SD mice), the “Average value of percentage of cerebral ischemic area” value amounted to 23.52%. Moreover, in the test on T(CD8+) cells, the “Lung (% CD8 + T cells)” value is given as 1.6 ± 0.2% and the “Spleen (% CD8 + T cells)” value was 8.6 ± 1.8%.
On to `Nc1nc2c(ncn2[C@@H]2O[C@@H]3COP(=O)(O)O[C@H]4[C@@H](O)[C@H](n5cnc6c(N)ncnc65)O[C@@H]4COP(=O)(O)O[C@@H]2[C@@H]3O)c(=O)[nH]1` [cGAMP, 2′3′-cGAMP, reference compound], for which, in test [1], the “Average inhibitory rate of tumor” value came out at 58.8% and the Average tumor weight is listed as 0.761 ± 0.157 g. The “Average value of percentage of cerebral ischemic area” value in the test with IRI mice (male SD mice) is 26.86%. In the test on T(CD8+) cells, the “Lung (% CD8 + T cells)” value is recorded as 0.5 ± 0.2% and the “Spleen (% CD8 + T cells)” value was determined as 2.2 ± 0.2%.
As for `Nc1nc2c(ncn2[C@@H]2O[C@@H]3COP(=O)([O-])O[C@H]4[C@@H](O)[C@H](n5cnc6c(N)ncnc65)O[C@@H]4COP(=O)([O-])O[C@@H]2[C@@H]3O)c(=O)[nH]1.[Mg+2]` [[Mg(cGAMP)], magnesium cyclic dinucleotide], in test [1], the “Average inhibitory rate of tumor” value was 63.2% and the Average tumor weight stood at 0.679 ± 0.183 g. Besides, the “Average value of percentage of cerebral ischemic area” value in the test on IRI mice (male SD mice) is 18.16%. In the test with T(CD8+) cells, the “Lung (% CD8 + T cells)” value is 1.7 ± 0.3% and the “Spleen (% CD8 + T cells)” value is recorded as 6.2 ± 0.6%.
Consider `Nc1nc2c(ncn2C2OC3COP(=O)([O-])OC4C(COP(=O)([O-])OC2C3O)OC(n2cnc3c(N)ncnc32)C4O)c(=O)[nH]1.[Fe+2]` (stereo not drawn) [[Fe(cGAMP)], ferrous cyclic dinucleotide], for which, in test [1], the “Average inhibitory rate of tumor” value came to 83.6% and the Average tumor weight stood at 0.301 ± 0.116 g. Moreover, the “Average value of percentage of cerebral ischemic area” value in the test on IRI mice (male SD mice) is reported as 26.78%. Moreover, in the test with T(CD8+) cells, the “Lung (% CD8 + T cells)” value is recorded as 0.7 ± 0.3% and the “Spleen (% CD8 + T cells)” value was 6.9 ± 1.2%.
